Experimental data from patent US10759810B2 (AO “TATKHIMFARMPREPARATY”, priority 2016, dated 2020).
≈ marks a conversion by molar mass, not a printed value.

How the values were obtained:
[1] = test system: clinical freshly isolated strains of Staphylococcus aureus MRSA; test: Antibacterial activity (MIC), clinical MRSA strains overall; format: cell-based; details: in words, in almost all cases
Method: (§1) Measurement of antibacterial activity was carried out on the strains of Staphylococcus aureus ATCC 29213 (museum strain), Staphylococcus epidermidis (clinical isolate), Micrococcus luteus (clinical isolate), Bacillus subtilis 168 (museum strain), Escherichia coli ATCC 25922 (museum strain), Salmonella typhimurium TA100 (museum strain), Pseudomonas aeruginosa ATCC 27853 (museum strain). A comparative assessment of the spectrum of antibacterial action on reference strains and clinical isolates of gram-positive microorganisms was carried out using a micromethod for determining the minimum inhibitory concentration (MIC) using serial dilutions in Mueller-Hinton broth using 96-well sterile plates.
(§2) The first lowest concentration of the antibiotic (from a series of successive dilutions), where bacterial growth is not visually determined, is considered to be the minimum inhibitory concentration (MIC).
(§3) For the preparation of inoculum (infectious material used for artificial contamination), intended for the study of antibacterial activity, was used a pure daily culture of bacteria grown on a dense nutrient medium (agar LB medium). […] The inoculum was used for 15 minutes after preparation; the purity of the bacterial strains was monitored before each experiment. […]

[2] = test system: Micrococcus luteus (clinical isolate); test: MIC, serial dilutions in Mueller-Hinton broth; format: cell-based
Method: as §1, §2
(§4) For the preparation of inoculum (infectious material used for artificial contamination), intended for the study of antibacterial activity, was used a pure daily culture of bacteria grown on a dense nutrient medium (agar LB medium). In a sterile isotonic solution of sodium chloride, a suspension of microorganisms was prepared, adjusting the inoculum density to 0.5 according to the McFarland standard (1.5·10^8 CFU/ml). Then, the resulting inoculum was diluted to a concentration of 10^7 CFU/ml with LB-broth. The inoculum was used for 15 minutes after preparation; the purity of the bacterial strains was monitored before each experiment.
(§5) 100 μl of Muller-Hinton broth was added to the wells of each plate; the test base was introduced into the first well at a concentration of 128 μg/ml in a volume of 100 μl and its concentration was adjusted to 0.25 μg/ml by consecutive two-fold dilution. […] Each preparation in the experiment was titrated three times. […] In addition, the purity of nutrient media and solvents was monitored. The plates were incubated in a thermostat at […] for 24 hours.
(§6) The growth of cultures was assessed visually, comparing the growth of microorganisms in the presence of test compounds with the growth of culture without them.

[3] = test system: Staphylococcus epidermidis (clinical isolate); test: MIC, serial dilutions in Mueller-Hinton broth; format: cell-based
Method: as §1, §2, §4, §5, §6

[4] = test system: Escherichia coli ATCC 25922 (museum strain); test: MIC, serial dilutions in Mueller-Hinton broth; format: cell-based
Method: as §1, §2, §4, §5, §6

[5] = test system: Staphylococcus aureus ATCC 29213 (museum strain); test: MIC, serial dilutions in Mueller-Hinton broth; format: cell-based
Method: as §1, §2, §4, §5, §6

[6] = test system: Salmonella typhimurium TA100 (museum strain); test: MIC, serial dilutions in Mueller-Hinton broth; format: cell-based
Method: as §1, §2, §4, §5, §6

[7] = test system: Bacillus subtilis 168 (museum strain); test: MIC, serial dilutions in Mueller-Hinton broth; format: cell-based
Method: as §1, §2, §4, §5, §6

[8] = test system: Pseudomonas aeruginosa ATCC 27853 (museum strain); test: MIC, serial dilutions in Mueller-Hinton broth; format: cell-based
Method: as §1, §2, §4, §5, §6

S. aureus MRSA 1053 = test: MIC on clinical strain; format: cell-based, Staphylococcus aureus
Method: as §1, §2, §4, §5, §6

S. aureus MRSA 1065 = test: MIC on clinical strain; format: cell-based, Staphylococcus aureus
Method: as §1, §2, §4, §5, §6

S. aureus MRSA 983 = test: MIC on clinical strain; format: cell-based, Staphylococcus aureus
Method: as §1, §2, §4, §5, §6

S. aureus MRSA 981 = test: MIC on clinical strain; format: cell-based, Staphylococcus aureus
Method: as §1, §2, §4, §5, §6

S. aureus MRSA 1131 = test: MIC on clinical strain; format: cell-based, Staphylococcus aureus
Method: as §1, §2, §4, §5, §6

S. aureus MRSA 1168 = test: MIC on clinical strain; format: cell-based, Staphylococcus aureus
Method: as §1, §2, §4, §5, §6

S. aureus MRSA 1130 = test: MIC on clinical strain; format: cell-based, Staphylococcus aureus
Method: as §1, §2, §4, §5, §6

S. aureus MRSA 1173 = test: MIC on clinical strain; format: cell-based, Staphylococcus aureus
Method: as §1, §2, §4, §5, §6

S. aureus MRSA 1163 = test: MIC on clinical strain; format: cell-based, Staphylococcus aureus
Method: as §1, §2, §4, §5, §6

S. aureus MRSA 1143 = test: MIC on clinical strain; format: cell-based, Staphylococcus aureus
Method: as §1, §2, §4, §5, §6

S. aureus MRSA 967 = test: MIC on clinical strain; format: cell-based, Staphylococcus aureus
Method: as §1, §2, §4, §5, §6

S. aureus MRSA 2020 = test: MIC on clinical strain; format: cell-based, Staphylococcus aureus
Method: as §1, §2, §4, §5, §6

[9] = test system: gram-positive microorganisms; test: Antibacterial activity (MIC), gram-positive strains; format: cell-based; details: in words, versus comparison drugs
Method: as §1, §2, §3

[10] = test system: gram-negative bacterial strains; test: Antibacterial activity (MIC), gram-negative strains; format: cell-based; details: in words
Method: as §1, §2, §3

ICR mice (CD-1) = test: General acute toxicity, fixed-dose method, intragastric administration; format: in vivo, mouse; details: for Number of animals in the group/number of dead animals / LD10 / LD16 / LD50 with confidence interval / LD84: mouse
Method: The acute toxicity of compound I-2 was studied using the fixed-dose method in ICR mice (CD-1) (6-8 weeks, 20-25 g) of both sexes, 6 animals per group. The starting dose for testing compound I-2 was 5000 mg/kg. The intragastric (oral) administration of compound I-2 to animals (<2.5 ml/100 g) using a gastric probe was used.

[11] = test system: microorganism strains under study; test: Antibacterial activity (MIC), whole strain panel; format: cell-based; details: in words, from Table 1
Method: as §1, §2, §3

[12] = inoculum 10^7 CFU/ml, gram-positive
[13] = inoculum 10^7 CFU/ml, gram-negative

## Cc1ncc(CN2CCN(c3cc4c(cc3F)c(=O)c(C(=O)O)cn4C3CC3)CC2)c(CO)c1O [Compound I-2, 1-cyclopropyl-6-fluoro-7-(4-((5-hydroxy-4-hydroxymethyl-6-methylpyridine-3-yl)methyl)piperazinyl)-4-oxo-1,4-dihydroquinolin-3-carboxylic acid]
[1]
  MIC on clinical MRSA strains compared with ceftriaxone: superior to ceftriaxone
[2]; [12]
  MIC, M. luteus: 4 µg/mL (≈ 8.29 µM)
[3]; [12]
  MIC, S. epidermidis: 2 µg/mL (≈ 4.14 µM)
[4]; [13]
  MIC, E. coli: 2 µg/mL (≈ 4.14 µM)
[5]; [12]
  MIC, S. aureus: 2 µg/mL (≈ 4.14 µM)
[6]; [13]
  MIC, S. typhimurium: 2 µg/mL (≈ 4.14 µM)
[7]; [12]
  MIC, B. subtilis: <2 µg/mL
[8]; [13]
  MIC, P. aerugenosa: >64 µg/mL
S. aureus MRSA 1053; inoculum 10^7 CFU/ml
  The value of the MIC, S. aureus MRSA 1053: 16 µg/mL
S. aureus MRSA 1065; inoculum 10^7 CFU/ml
  The value of the MIC, S. aureus MRSA 1065: 32 µg/mL
S. aureus MRSA 983; inoculum 10^7 CFU/ml
  The value of the MIC, S. aureus MRSA 983: 8 µg/mL
S. aureus MRSA 981; inoculum 10^7 CFU/ml
  The value of the MIC, S. aureus MRSA 981: 16 µg/mL
S. aureus MRSA 1131; inoculum 10^7 CFU/ml
  The value of the MIC, S. aureus MRSA 1131: 16 µg/mL
S. aureus MRSA 1168; inoculum 10^7 CFU/ml
  The value of the MIC, S. aureus MRSA 1168: 0.25 µg/mL
S. aureus MRSA 1130; inoculum 10^7 CFU/ml
  The value of the MIC, S. aureus MRSA 1130: 16 µg/mL
S. aureus MRSA 1173; inoculum 10^7 CFU/ml
  The value of the MIC, S. aureus MRSA 1173: 16 µg/mL
S. aureus MRSA 1163; inoculum 10^7 CFU/ml
  The value of the MIC, S. aureus MRSA 1163: 0.5 µg/mL
S. aureus MRSA 1143; inoculum 10^7 CFU/ml
  The value of the MIC, S. aureus MRSA 1143: 32 µg/mL
S. aureus MRSA 967; inoculum 10^7 CFU/ml
  The value of the MIC, S. aureus MRSA 967: 16 µg/mL
S. aureus MRSA 2020; inoculum 10^7 CFU/ml
  The value of the MIC, S. aureus MRSA 2020: 0.25 µg/mL
[9]
  antibacterial action with respect to gram-positive microorganisms: comparable with the comparison drugs
[10]
  antibacterial activity in relation to gram-negative bacterial strains: low antibacterial activity
ICR mice (CD-1); end of experiment, pathomorphological dissection
  changes during the autopsy of mice: No changes were observed
ICR mice (CD-1); from acute toxicity in mice
  hazard class: 4
ICR mice (CD-1); mice of both sexes, 5000 mg/kg intragastric
  behaviour after dosing: slight inhibition of activity
ICR mice (CD-1); mice of both sexes, 5000 mg/kg intragastric, whole experiment
  death of animals (mortality): not observed
ICR mice (CD-1); mice, 5000 mg/kg intragastric
  abnormalities during the observation period: no abnormalities were observed
  time until animals began to take food and water: 1.5 to 2 h
  time until behavior of animals returned to normal: 20 to 30 min
ICR mice (CD-1); mice, intragastric, up to 5000 mg/kg
  mean lethal dose: not detected
ICR mice (CD-1); females, 5000 mg/kg intragastric
  Number of animals in the group/number of dead animals: 6/0
ICR mice (CD-1); females, intragastric
  LD10: >5000 mg/kg
  LD16: >5000 mg/kg
  LD50 with confidence interval: >5000 mg/kg
  LD84: >5000 mg/kg
ICR mice (CD-1); males, 5000 mg/kg intragastric
  Number of animals in the group/number of dead animals: 6/0
ICR mice (CD-1); males, intragastric
  LD10: >5000 mg/kg
  LD16: >5000 mg/kg
  LD50 with confidence interval: >5000 mg/kg
  LD84: >5000 mg/kg
[11]
  antibacterial activity against the microorganism strains under study: most active

## CN[C@H](CC(C)C)C(=O)N[C@H]1C(=O)N[C@@H](CC(N)=O)C(=O)N[C@H]2C(=O)N[C@H]3C(=O)N[C@H](C(=O)N[C@H](C(=O)O)c4cc(O)cc(O)c4-c4cc3ccc4O)[C@H](O)c3ccc(c(Cl)c3)Oc3cc2cc(c3O[C@@H]2O[C@H](CO)[C@@H](O)[C@H](O)[C@H]2O[C@H]2C[C@](C)(N)[C@H](O)[C@H](C)O2)Oc2ccc(cc2Cl)[C@H]1O [Vancomycin, vancomycin]
[2]; Micrococcus luteus, read-out: MIC, M. luteus
  MIC: 4 µg/mL (≈ 2.76 µM)
[3]; Staphylococcus epidermidis, read-out: MIC, S. epidermidis
  MIC: 4 µg/mL (≈ 2.76 µM)
[4]; Escherichia coli, ATCC25922, read-out: MIC, E. coli
  MIC: 64 µg/mL (≈ 44.2 µM)
[5]; Staphylococcus aureus, ATCC29213, read-out: MIC, S. aureus
  MIC: 4 µg/mL (≈ 2.76 µM)
[6]; Salmonella enterica, TYPHIMURIUM, read-out: MIC, S. typhimurium
  MIC: 64 µg/mL (≈ 44.2 µM)
[7]; Bacillus subtilis, read-out: MIC, B. subtilis
  MIC: 64 µg/mL (≈ 44.2 µM)
[8]; Pseudomonas aeruginosa, ATCC27853, read-out: MIC, P. aerugenosa
  MIC: > 64 µg/mL
S. aureus MRSA 1053; Staphylococcus aureus, MRSA, read-out: The value of the MIC, S. aureus MRSA 1053
  MIC: 2 µg/mL (≈ 1.38 µM)
S. aureus MRSA 1065; Staphylococcus aureus, MRSA, read-out: The value of the MIC, S. aureus MRSA 1065
  MIC: 1 µg/mL (≈ 0.69 µM)
S. aureus MRSA 983; Staphylococcus aureus, MRSA, read-out: The value of the MIC, S. aureus MRSA 983
  MIC: 2 µg/mL (≈ 1.38 µM)
S. aureus MRSA 981; Staphylococcus aureus, MRSA, read-out: The value of the MIC, S. aureus MRSA 981
  MIC: 2 µg/mL (≈ 1.38 µM)
S. aureus MRSA 1131; Staphylococcus aureus, MRSA, read-out: The value of the MIC, S. aureus MRSA 1131
  MIC: 0.5 µg/mL (≈ 0.345 µM)
S. aureus MRSA 1168; Staphylococcus aureus, MRSA, read-out: The value of the MIC, S. aureus MRSA 1168
  MIC: 0.5 µg/mL (≈ 0.345 µM)
S. aureus MRSA 1130; Staphylococcus aureus, MRSA, read-out: The value of the MIC, S. aureus MRSA 1130
  MIC: 1 µg/mL (≈ 0.69 µM)
S. aureus MRSA 1173; Staphylococcus aureus, MRSA, read-out: The value of the MIC, S. aureus MRSA 1173
  MIC: 2 µg/mL (≈ 1.38 µM)
S. aureus MRSA 1163; Staphylococcus aureus, MRSA, read-out: The value of the MIC, S. aureus MRSA 1163
  MIC: 2 µg/mL (≈ 1.38 µM)
S. aureus MRSA 1143; Staphylococcus aureus, MRSA, read-out: The value of the MIC, S. aureus MRSA 1143
  MIC: 1 µg/mL (≈ 0.69 µM)
S. aureus MRSA 967; Staphylococcus aureus, MRSA, read-out: The value of the MIC, S. aureus MRSA 967
  MIC: 4 µg/mL (≈ 2.76 µM)
S. aureus MRSA 2020; Staphylococcus aureus, MRSA, read-out: The value of the MIC, S. aureus MRSA 2020
  MIC: 0.5 µg/mL (≈ 0.345 µM)
